Where a name gives a salt, the structure may show the parent alone.
Experiments:
SB.mhdgc-1 [1] = experiment: viability at highest tested concentration (MAXR) relative to DMSO; higher = less cytotoxic; settings: SB.mhdgc-1 (hereditary c.1380delA CDH1 gastric cancer)
How it was run: (§1)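 Viability, normalised to DMSO, is listed either at the highest concentration or as trapezoidal area under the curve. It was measured in patient-derived gastric cancer cells, hereditary or sporadic, exposed for 48 h to 11 threefold-diluted compound concentrations and then assayed with CellTiter-Glo luminescence.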

SB.msgc-1 [2] = experiment: as above; settings: SB.msgc-1 (sporadic gastric cancer)
How it was run: as §1

SB.mhdgc-1 [3] = experiment: area under the dose-response curve of % viability (trapezoidal, 11 doses) (% viability x log10 concentration); higher = less cytotoxic; settings: SB.mhdgc-1 (hereditary c.1380delA CDH1 gastric cancer)
How it was run: as §1

SB.msgc-1 [4] = experiment: as above; settings: SB.msgc-1 (sporadic gastric cancer)
How it was run: as §1

SMILES	viability (SB.mhdgc-1 [1]) [%]	viability (SB.msgc-1 [2]) [%]	area under the dose-response curve (SB.mhdgc-1 [3])	area under the dose-response curve (SB.msgc-1 [4])
C=CCO/N=C(/C[C@H]1O[C@@H]2O[C@]3(C)CC[C@H]4[C@H](C)CC[C@@H]([C@H]1C)[C@@]24OO3)[C@H]1O[C@@H]2O[C@]3(C)CC[C@H]4[C@H](C)CC[C@@H]([C@H]1C)[C@@]24OO3 [BTM-2C-dimer allyl oxime] (top concentration 46.0829 µM)	11	60.3	376	488
CO[C@H]1CCC(O[C@H]2C[C@H]([C@]3(C)CC[C@]4(C[C@H](O)[C@@H](C)[C@@H]([C@@H](C)/C=C(\C)C(=O)[C@H](C)C[C@H](C)C(=O)[O][Na])O4)O3)O[C@]3(O[C@@H]([C@H]4O[C@@](O)(CO)[C@H](C)C[C@@H]4C)C[C@@H]3C)[C@@H]2C)O[C@@H]1C (stereo not given in full) [Nanchangmycin] (top concentration 46.0829 µM)	2.69	1.92	303	289
C[C@H](NC(=O)Cc1cc(F)cc(F)c1)C(=O)N[C@@H]1C(=O)N(C)c2ccccc2-c2ccccc21 (top concentration 46.0829 µM)	32.4	38.9	423	491
OCCN1C[C@H](O)[C@@H](O)[C@H](O)[C@H]1CO [Miglitol] (top concentration 46.0829 µM)	106	123	529	560
Clc1ccc(C(c2ccccc2Cl)C(Cl)Cl)cc1 (stereo not given) [Mitotane] (top concentration 46.0829 µM)	51	59.8	478	497
O=C(O)CCc1ccc(NCc2cccc(Oc3ccccc3)c2)cc1 [GW-9508] (top concentration 46.0829 µM)	127	95.2	533	519
CCn1c(-c2nonc2N)nc2cnc(Oc3cccc(NC(=O)c4ccc(OCCN5CCOCC5)cc4)c3)cc21 (top concentration 46.0829 µM)	35.6	54.2	479	514
C/C=C(/C(=C/C)c1ccc(O)cc1)c1ccc(O)cc1 [Dienestrol] (top concentration 46.0829 µM)	34.3	70.9	527	457
CN(C)CC(C)(C)CNc1nn2c(-c3ccccc3)nnc2cc1C1CCC1 [Akt-I-1] (top concentration 46.0829 µM)	30.8	67.5	381	528
O=c1oc2cc(O)ccc2s1 [Tioxolone] (top concentration 46.0829 µM)	35.5	86.2	577	543
CCN(CC)CCCCNc1nc2cc(Cl)c(Cl)cc2nc1-c1ccc(-c2cccs2)s1 (top concentration 46.0829 µM)	4.07	1.55	479	475
CN1CCC(CC1)=C2C3=C(C=CC=C3)\C=C/C4=C2C=CC=C4 [Cyproheptadine hydrochloride] (top concentration 46.0829 µM)	12.1	19.9	472	455
Cn1c(CCCC(=O)O)nc2cc(N(CCCl)CCCl)ccc21 [Bendamustine] (top concentration 46.0829 µM)	60.2	84.1	542	541
CC(C)C[C@H](NC(=O)c1cc2ccccc2s1)C(=O)N1CCN(C(=O)[C@H](CO)N[S+](=O)([O-])c2ccc(Cl)cc2Cl)CC1 (top concentration 46.0829 µM)	3.53	22.9	458	502
CC(C)C(C)/C=C/C(C)C1CCC2C3=CC=C4CC(O)CCC4(C)C3CCC21C (stereo not given) [Ergosterol] (top concentration 46.0829 µM)	96.5	97.5	512	521
C/C(=C\c1csc(C)n1)[C@@H]1C[C@@H]2O[C@]2(C)CCC[C@H](C)[C@H](O)[C@@H](C)C(=O)C(C)(C)[C@@H](O)CC(=O)O1 [Epothilone B] (top concentration 46.0829 µM)	33.9	46.2	245	217
O=C(CCCCCCC(=O)Nc1cccnc1)NO [Pyroxamide] (top concentration 46.0829 µM)	55.4	6.06	466	385
CCCCCCCCCCCCCCCC(=O)O[C@@H]1[C@@H](O)[C@@H](O)[C@@H]([C@H](NC(=O)[C@@H]2C[C@@H](CCC)CN2C)[C@H](C)Cl)O[C@@H]1SC.Cl [Clindamycin palmitate] (top concentration 46.0829 µM)	89.9	91.8	533	583
CCOC(=O)Nc1ccc(NCc2ccc(F)cc2)cc1N [Retigabine] (top concentration 46.0829 µM)	82	73.7	490	524
CN1\C(=C(O)/C2=C(C=C(Cl)S2)[S+]1([O-])=O)C(=O)NC3=NC=CC=C3 [Lornoxicam] (top concentration 46.0829 µM)	55.5	33.4	490	454
O=P(O)(O)C(O)(Cn1ccnc1)P(=O)(O)O [Zoledronic acid monohydrate] (top concentration 23.0415 µM)	124	120	608	578
CNC(=O)CN1CCC(Oc2cc3c(Nc4cccc(Cl)c4F)ncnc3cc2OC)CC1 [Sapitinib] (top concentration 46.0829 µM)	53.9	28.9	315	224
O=C(NOCC(O)CO)c1cc(Br)c(F)c(F)c1Nc1ccc(I)cc1F (stereo not given) (top concentration 46.0829 µM)	73.9	60.1	398	444

SMILES	viability (SB.mhdgc-1 [1]) [%]	viability (SB.msgc-1 [2]) [%]	area under the dose-response curve (SB.mhdgc-1 [3])	area under the dose-response curve (SB.msgc-1 [4])
Clc1cccc(-c2nnnn2Cc2cccnc2)c1Cl (top concentration 46.0829 µM)	88.6	111	402	520
C[C@@H]1[C@H](O)[C@@H](C)/C=C/C=C/C=C/C=C/C=C/C=C/C=C/[C@H](O[C@@H]2O[C@H](C)[C@@H](O)[C@H](N)[C@@H]2O)C[C@@H]2O[C@](O)(C[C@@H](O)C[C@@H](O)[C@H](O)CC[C@@H](O)C[C@@H](O)CC(=O)O[C@H]1C)C[C@H](O)[C@H]2C(=O)O [Amphotericin B] (top concentration 46.0829 µM)	30.6	55	382	564
CC(=O)N(C)c1cccc(-c2ccnc3c(C(=O)c4cccs4)cnn23)c1 [Indiplon] (top concentration 46.0829 µM)	101	64.2	571	489
O=C(O)COCCN1CCN(C(c2ccccc2)c2ccc(Cl)cc2)CC1 (stereo not given) [Cetirizine hydrochloride] (top concentration 46.0829 µM)	101	120	561	582
C[C@H](O)[C@H]1[C@@H]2[C@H](C)C(=C(\N2C1=O)C(O)=O)/S[C@@H]3CN[C@H](CN[S+](N)([O-])=O)C3 [Doripenem] (top concentration 46.0829 µM)	89	108	496	566
CCCCOc1ccc(CC(=O)NO)cc1 [Bufexamac] (top concentration 46.0829 µM)	1.95	56.1	479	494
Nc1nc2ccc(OC(F)(F)F)cc2s1 [Riluzole] (top concentration 46.0829 µM)	62.8	62.1	520	508
Nc1nc(Cl)nc2c1ncn2[C@@H]1O[C@H](CO)[C@@H](O)[C@@H]1F [Clofarabine] (top concentration 46.0829 µM)	21.7	51.5	278	296
CC(C)NCC(O)c1ccc(O)c(O)c1 (stereo not given) [Isoprenaline hydrochloride] (top concentration 46.0829 µM)	53.5	9.29	510	537
O=[S+]([O-])(F)Cc1ccccc1 [PMSF] (top concentration 46.0829 µM)	55.5	93.4	406	489
CN1\C(=C(\O)C2=CC=CC=C2[S+]1([O-])=O)C(=O)NC3=NC=C(C)S3 [Meloxicam] (top concentration 46.0829 µM)	99.9	52.2	447	341
O=C(Nc1cc(Cl)cc2c1[nH]c1cnccc12)c1cccnc1 [PS-1145] (top concentration 46.0829 µM)	36.6	54.8	442	508
CC(C)[C@]12O[C@H]1[C@@H]3O[C@@]34[C@@]5(C)CC\C6=C(COC6=O)/[C@@H]5C[C@@H]7O[C@]47[C@@H]2O [Triptolide] (top concentration 46.0829 µM)	61.6	48	302	235
NCC(=O)Nc1ccc(-n2nc(C(F)(F)F)cc2-c2ccc3c(ccc4ccccc43)c2)cc1 (top concentration 46.0829 µM)	0.199	10.9	496	472
C[C@H]1[C@H](NC(=O)/C(=N/OC(C)(C)C(=O)O)c2csc(N)n2)C(=O)N1[S+](=O)([O-])O [Aztreonam] (top concentration 46.0829 µM)	111	101	549	502
OC(CCN1CCCCC1)(C2CC\3CC2\C=C3)C4=CC=CC=C4 (stereo not given) [Biperiden] (top concentration 46.0829 µM)	95.5	119	575	576
CN(C)CCc1ccc(O)cc1 [Hordenine] (top concentration 46.0829 µM)	87.9	88.4	433	527
Fc1ccc(CNc2ncnc3ccc(F)cc23)cc1 [Spautin-1] (top concentration 46.0829 µM)	67.9	61.4	505	470
CCNC(=O)c1cc2c(-c3cc(OCCN4CCCC4)c(Cl)cc3Cl)nc(N)nc2s1 (top concentration 46.0829 µM)	59.6	52.4	514	397
C[C@](N)(Cc1ccc(O)c(O)c1)C(=O)O [Methyldopa] (top concentration 46.0829 µM)	63.7	105	469	519
Cc1c(C)n(Cc2ccc(-c3ccccc3C(=O)O)cc2)c2ccc(C(=O)N[C@@H](C)c3ccc([N+](=O)[O-])cc3)cc12 [SR1664] (top concentration 46.0829 µM)	35.3	32.4	315	422
O=C(c1ccc(F)cc1)N1CCC[C@H](c2nc(-c3ccc(F)cc3)no2)C1 (top concentration 46.0829 µM)	76.5	104	500	582
